“And” between values parts separate entries of the source, which are not always exact repeats. Equal values may be shown once.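 Exposure lasted 48 hours, with cells grown in 96-well plates and compounds tested at five concentrations. GI50 is the concentration that inhibits growth by half. TGI is the concentration that stops growth completely.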
Columns and labels:
Assay in all cases: DTP human tumour cell line panel, 48 h
[1] = test system: A498 renal
[2] = test system: DU-145 prostate
[3] = test system: HCC-2998 colon
[4] = test system: HCT-15 colon
[5] = test system: HL-60(TB) leukemia
[6] = test system: HS 578T breast
[7] = test system: KM12 colon
[8] = test system: LOX IMVI melanoma
[9] = test system: M14 melanoma
[10] = test system: MCF7 breast
[11] = test system: MDA-MB-435
[12] = test system: NCI-H226 lung
[13] = test system: NCI-H23 lung
[14] = test system: NCI-H460 lung
[15] = test system: OVCAR-3 ovarian
[16] = test system: OVCAR-4 ovarian
[17] = test system: SK-MEL-5 melanoma
[18] = test system: SNB-75 CNS
[19] = test system: SW-620 colon
[20] = test system: UACC-257 melanoma
[21] = test system: A549 NSCLC
[22] = test system: CAKI-1 renal
[23] = test system: CCRF-CEM leukemia
[24] = test system: COLO 205 colon
[25] = test system: EKVX NSCLC
[26] = test system: HCT-116 colon
[27] = test system: HOP-62 NSCLC
[28] = test system: HT29 colon
[29] = test system: K-562 leukemia
[30] = test system: MOLT-4 leukemia
[31] = test system: NCI-H522 lung
[32] = test system: NCI/ADR-RES ovarian
[33] = test system: OVCAR-5 ovarian
[34] = test system: OVCAR-8 ovarian
[35] = test system: PC-3 prostate
[36] = test system: RPMI-8226 leukemia
[37] = test system: SF-268 CNS
[38] = test system: SF-295 CNS
[39] = test system: SK-MEL-2 melanoma
[40] = test system: SK-MEL-28 melanoma
[41] = test system: SK-OV-3 ovarian
[42] = test system: SN12C renal
[43] = test system: SNB-19 CNS
[44] = test system: SR leukemia
[45] = test system: U251 CNS
[46] = test system: UACC-62 melanoma
[47] = test system: 786-0 renal
[48] = test system: ACHN renal
[49] = test system: HOP-92 NSCLC
[50] = test system: IGROV1 ovarian
[51] = test system: MDA-MB-231 breast
[52] = test system: RXF 393 renal
[53] = test system: SF-539 CNS
[54] = test system: T-47D breast
[55] = test system: TK-10 renal
[56] = test system: UO-31 renal

Molecule `Brc1ccc2c(c1)c(-c1nc(-c3c[nH]c4ncccc34)cs1)cn2CCCN1CCCCC1` has a GI50 [1] of 2.32 µM, a TGI [1] of 9.16 µM and a GI50 [2] of 1.77 µM. It also gave a TGI [2] of 3.18 µM, a GI50 [3] of 1.82 µM and a TGI [3] of 3.41 µM. It also gave a GI50 [4] of 1.66 µM, a TGI [4] of 3.08 µM and a GI50 [5] of 1.9 µM. It also gave a TGI [5] of 4.57 µM, a GI50 [6] of 2.13 µM and a TGI [6] of 5.55 µM. For the same molecule, the GI50 [7] was 1.82 µM, the TGI [7] was 3.48 µM and the GI50 [8] was 1.68 µM. The TGI [8] was 3.08 µM, the GI50 [9] was 1.79 µM and the TGI [9] was 3.39 µM. For the same molecule, the GI50 [10] was 1.62 µM, the TGI [10] was 3.11 µM and the GI50 [11] was 1.86 µM. The TGI [11] was 3.49 µM, the GI50 [12] was 1.89 µM and the TGI [12] was 5.01 µM. For the same molecule, the GI50 [13] was 1.75 µM, the TGI [13] was 3.37 µM and the GI50 [14] was 1.78 µM. The TGI [14] was 3.37 µM, the GI50 [15] was 1.89 µM and the TGI [15] was 3.43 µM. For the same molecule, the GI50 [16] was 2.24 µM, the TGI [16] was 4.88 µM and the GI50 [17] was 1.74 µM. For the same molecule, the TGI [17] was 3.14 µM, the GI50 [18] was 1.85 µM and the TGI [18] was 4.59 µM. It also gave a GI50 [19] of 1.75 µM, a TGI [19] of 3.31 µM and a GI50 [20] of 1.9 µM. The TGI [20] was 3.5 µM.

With `CCCC(=O)Nc1cc(/C=C/C(=O)N2C[C@H]3C[C@@]34C2=CC(=O)c2[nH]cc(C)c24)n(C)c1` the TGI [1] was < 0.0025 µM, the TGI [21] was 25 µM and the TGI [22] was < 0.0025 µM. The TGI [23] was < 0.0025 µM, the TGI [24] was 0.281 µM and the TGI [25] was 1.15 µM. The TGI [3] was < 0.0025 µM, the TGI [26] was 11 µM and the TGI [4] was 25 µM. For the same molecule, the TGI [5] was < 0.0025 µM, the TGI [27] was 25 µM and the TGI [28] was 15.4 µM. For the same molecule, the TGI [29] was 25 µM, the TGI [7] was 0.267 µM and 1.12 µM and the TGI [9] was 25 µM. For the same molecule, the TGI [10] was 25 µM, the TGI [30] was < 0.0025 µM and the TGI [12] was 0.25 µM. The TGI [13] was 0.00558 µM, the TGI [31] was < 0.0025 µM and the TGI [32] was 0.11 µM and 0.0507 µM. For the same molecule, the TGI [15] was 0.00947 µM, the TGI [16] was 0.0111 µM and the TGI [33] was 25 µM. The TGI [34] was < 0.0025 µM, the TGI [35] was 25 µM and the TGI [36] was 0.164 µM. For the same molecule, the TGI [37] was > 100 µM, the TGI [38] was 0.388 µM and the TGI [39] was 25 µM. The TGI [40] was 0.00678 µM, the TGI [17] was 1.04 µM and the TGI [41] was 0.352 µM and 0.861 µM. For the same molecule, the TGI [42] was 0.257 µM, the TGI [43] was 2.86 µM and 13.2 µM and the TGI [18] was 0.00527 µM. The TGI [44] was < 0.0025 µM, the TGI [19] was 25 µM and 7.75 µM and the TGI [45] was 1.11 µM. The TGI [46] was < 0.0025 µM.

In the case of `COc1cccc(C2CC(=O)c3cccn32)c1` (centres undefined), the TGI [47] was > 100 µM, the TGI [1] was > 100 µM and the TGI [21] was > 100 µM. For the same molecule, the TGI [48] was > 100 µM, the TGI [22] was > 100 µM and the TGI [23] was > 100 µM. For the same molecule, the TGI [24] was > 100 µM, the TGI [2] was > 100 µM and the TGI [25] was > 100 µM. The TGI [3] was > 100 µM, the TGI [26] was > 100 µM and the TGI [4] was > 100 µM. The TGI [5] was 96 µM, the TGI [27] was > 100 µM and the TGI [49] was > 100 µM. For the same molecule, the TGI [6] was > 100 µM, the TGI [28] was > 100 µM and the TGI [50] was > 100 µM. The TGI [29] was > 100 µM, the TGI [7] was > 100 µM and the TGI [8] was > 100 µM. For the same molecule, the TGI [9] was > 100 µM, the TGI [10] was > 100 µM and the TGI [51] was > 100 µM. For the same molecule, the TGI [11] was > 100 µM, the TGI [30] was > 100 µM and the TGI [12] was > 100 µM. For the same molecule, the TGI [13] was > 100 µM, the TGI [31] was > 100 µM and the TGI [32] was > 100 µM. For the same molecule, the TGI [15] was > 100 µM, the TGI [16] was > 100 µM and the TGI [33] was > 100 µM. For the same molecule, the TGI [34] was > 100 µM, the TGI [35] was > 100 µM and the TGI [36] was > 100 µM. The TGI [52] was > 100 µM, the TGI [37] was > 100 µM and the TGI [38] was > 100 µM. For the same molecule, the TGI [53] was > 100 µM, the TGI [39] was > 100 µM and the TGI [40] was > 100 µM. The TGI [41] was > 100 µM, the TGI [42] was > 100 µM and the TGI [43] was > 100 µM. The TGI [18] was > 100 µM, the TGI [44] was > 100 µM and the TGI [19] was > 100 µM. For the same molecule, the TGI [54] was > 100 µM, the TGI [55] was > 100 µM and the TGI [45] was > 100 µM. The TGI [20] was > 100 µM, the TGI [46] was > 100 µM and the TGI [56] was > 100 µM.
